{"source": "patent US8748467B2", "about": "“Topical formulation” (Bayer Intellectual Property GmbH, priority 2007, dated 2014)", "key": {"total thyroxine (tT4)": {"tested_on": "total thyroxine (tT4)", "test": "Total thyroxine (tT4) assays before and after each week's treatment (Example 1)", "assay_type": "in vivo", "settings": "cats; twice daily for a week", "text": "At least a fortnight was allowed between treatments."}, "[1]": {"settings": "in vivo", "protocol": "They received standard oral carbimazole (Neomercazole, AFT Pharmaceuticals Ltd) tablets 5 mg administered twice daily for a week, followed by a test formulation of transdermal carbimazole (Test Formulation 1, Table 1, Example 2, below) 10 mg administered twice daily for a week, followed by Hoffman's (2002) transdermal formulation of carbimazole in poloxamer lecithin organogel (PLO), 10 mg administered twice daily for a week. At least a fortnight was allowed between treatments."}, "[2]": {"settings": "Hoffman et al, 2002; cited from earlier work"}}}
{"compound": "CCOC(=O)n1ccn(C)c1=S", "note": "[carbimazole]", "values": [{"measurement": "tT4 concentrations over the seven days of the trial period", "setting": "total thyroxine (tT4)", "value": "approximately halved"}, {"measurement": "plasma methimazole levels relative to the published therapeutic range", "setting": "[1]", "value": "in the published therapeutic range"}]}
{"compound": "Cn1cc[nH]c1=S", "note": "[methimazole]", "values": [{"measurement": "published plasma levels with methimazole", "setting": "[2]", "value": "0.51 ± 0.15", "unit": "µg/mL"}]}
